Reference: ChEMBL document CHEMBL3091423, “Synthesis, antioxidant capacity, and structure-activity relationships of tri-O-methylnorbergenin analogues on tyrosinase inhibition” (Bioorg Med Chem Lett, 2013)

molecular target: T1, Tyrosinase (Agaricus bisporus) (UniProt O42713)
T1 sequence (whole entry): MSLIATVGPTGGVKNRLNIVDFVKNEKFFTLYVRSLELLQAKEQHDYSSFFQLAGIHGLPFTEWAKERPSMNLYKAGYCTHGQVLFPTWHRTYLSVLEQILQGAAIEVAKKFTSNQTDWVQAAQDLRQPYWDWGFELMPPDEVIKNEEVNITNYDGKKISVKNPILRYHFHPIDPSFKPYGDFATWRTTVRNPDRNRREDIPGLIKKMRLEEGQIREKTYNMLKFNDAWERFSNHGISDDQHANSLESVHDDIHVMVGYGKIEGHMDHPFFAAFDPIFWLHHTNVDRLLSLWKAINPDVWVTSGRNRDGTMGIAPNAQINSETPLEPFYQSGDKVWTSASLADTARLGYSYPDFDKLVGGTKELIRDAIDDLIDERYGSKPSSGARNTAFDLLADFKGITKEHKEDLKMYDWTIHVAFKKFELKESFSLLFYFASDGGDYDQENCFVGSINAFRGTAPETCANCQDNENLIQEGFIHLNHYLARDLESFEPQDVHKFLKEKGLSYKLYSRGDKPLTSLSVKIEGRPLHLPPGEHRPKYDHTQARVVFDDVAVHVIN
Description: (§1) Inhibition of mushroom tyrosinase using L-tyrosine as substrate preincubated for 10 mins followed by enzyme addition measured after 20 mins by microplate reader analysis

For `COc1cc2c(c(OC)c1OC)[C@@H]1O[C@H](COC(=O)c3ccc(O)c(O)c3)[C@@H](O)[C@H](O)[C@H]1OC2=O`, the inhibition was “Dose-dependent effect”.
`COc1cc2c(c(OC)c1OC)[C@@H]1O[C@H](COC(=O)c3ccc(O)cc3)[C@@H](O)[C@H](O)[C@H]1OC2=O` was tested, and the inhibition was “Dose-dependent effect”.
With `COc1ccc(C(=O)OC[C@H]2O[C@H]3c4c(cc(OC)c(OC)c4OC)C(=O)O[C@@H]3[C@@H](O)[C@@H]2O)cc1O` the inhibition was “Dose-dependent effect”.

molecular target: T2, Tyrosinase (Agaricus bisporus, UniProt O42713); assay: Uncompetitive inhibition of mushroom tyrosinase using L-tyrosine as substrate by Dixon/Cornish-Bowden plot analysis
T2 sequence (O42713 whole entry): T1 sequence (whole entry)

`COc1ccc(C(=O)OC[C@H]2O[C@H]3c4c(cc(OC)c(OC)c4OC)C(=O)O[C@@H]3[C@@H](O)[C@@H]2O)cc1O` was tested, and the Ki was 107 µM.

molecular target: T2, Tyrosinase
Description: as §1

`COc1ccc(C(=O)O)cc1` [p-ANISIC ACID] and `O=C(O)c1ccc(O)cc1` [PARABEN] cannot be ordered by IC50: > 100 µM for the first, > 100 µM for the second.

First: COc1cc(C(=O)OC[C@H]2O[C@H]3c4c(cc(OC)c(OC)c4OC)C(=O)O[C@@H]3[C@@H](O)[C@@H]2O)ccc1O
Second: COc1ccc(C(=O)OC[C@H]2O[C@H]3c4c(cc(OC)c(OC)c4OC)C(=O)O[C@@H]3[C@@H](O)[C@@H]2O)cc1O
The IC50 of the first is higher: > 100 µM for the first, 38.8 µM for the second. The second is the more potent here.

`COc1cc(OC)cc(C(=O)OC[C@H]2O[C@H]3c4c(cc(OC)c(OC)c4OC)C(=O)O[C@@H]3[C@@H](O)[C@@H]2O)c1` and `COc1cc(C(=O)OC[C@H]2O[C@H]3c4c(cc(OC)c(OC)c4OC)C(=O)O[C@@H]3[C@@H](O)[C@@H]2O)cc(OC)c1O` cannot be ordered by IC50: > 100 µM for the first, > 100 µM for the second.

`COc1ccc(C(=O)O)cc1O` [ISOVANILLIC ACID] and `COc1ccc(C(=O)O)cc1OC` [VERATRIC ACID] cannot be ordered by IC50: > 100 µM for the first, > 100 µM for the second.

Going from `COc1cc2c(c(OC)c1OC)[C@@H]1O[C@H](COC(=O)c3ccc(O)c(O)c3)[C@@H](O)[C@H](O)[C@H]1OC2=O` to `COc1cc2c(c(OC)c1OC)[C@@H]1O[C@H](COC(=O)c3ccc(O)cc3)[C@@H](O)[C@H](O)[C@H]1OC2=O`, the IC50 rises from 9.1 µM to 31.5 µM (3.5-fold). The first is the more potent here.

`COc1cc(C(=O)O)cc(OC)c1O` [SYRINGIC ACID] and `COc1cc(OC)cc(C(=O)O)c1` [3,5-DIMETHOXYBENZOIC ACID] cannot be ordered by IC50: > 100 µM for the first, > 100 µM for the second.

`COc1ccc(C(=O)OC[C@H]2O[C@H]3c4c(cc(OC)c(OC)c4OC)C(=O)O[C@@H]3[C@@H](O)[C@@H]2O)cc1` and `COc1cc2c(c(OC)c1OC)[C@@H]1O[C@H](COC(=O)c3ccccc3)[C@@H](O)[C@H](O)[C@H]1OC2=O` cannot be ordered by IC50: > 100 µM for the first, > 100 µM for the second.

`COc1ccc(C(=O)OC[C@H]2O[C@H]3c4c(cc(OC)c(OC)c4OC)C(=O)O[C@@H]3[C@@H](O)[C@@H]2O)cc1OC` and `COc1cc2c(c(OC)c1OC)[C@H]1O[C@@H](CO)[C@H](O)[C@@H](O)[C@@H]1OC2=O` cannot be ordered by IC50: > 100 µM for the first, > 100 µM for the second.

First: COc1c(O)cc2c(c1O)[C@@H]1O[C@H](COC(=O)c3ccc(O)c(O)c3)[C@@H](O)[C@H](O)[C@H]1OC2=O
Second: COc1c(O)cc2c(c1O)[C@@H]1O[C@H](CO)[C@@H](O)[C@H](O)[C@H]1OC2=O [BERGENIN]
The IC50 of the first is lower: 17.5 µM for the first, > 100 µM for the second.

`O=C(O)c1ccccc1` [BENZOIC ACID] and `O=C(O)c1ccc(O)c(O)c1` [PROTOCATECHUIC ACID] cannot be ordered by IC50: > 100 µM for the first, > 100 µM for the second.

molecular target: T2, Tyrosinase; assay: Mixed inhibition of mushroom tyrosinase using L-tyrosine as substrate by Dixon/Cornish-Bowden plot analysis

First: COc1cc2c(c(OC)c1OC)[C@@H]1O[C@H](COC(=O)c3ccc(O)c(O)c3)[C@@H](O)[C@H](O)[C@H]1OC2=O
Second: COc1cc2c(c(OC)c1OC)[C@@H]1O[C@H](COC(=O)c3ccc(O)cc3)[C@@H](O)[C@H](O)[C@H]1OC2=O
The Ki of the first is 17-fold lower: 7.3 µM for the first, 121 µM for the second. The first binds more tightly here.

molecular target: T2, Tyrosinase; assay: Inhibition of mushroom tyrosinase using L-tyrosine as substrate by Dixon plot analysis

Going from `COc1cc2c(c(OC)c1OC)[C@@H]1O[C@H](COC(=O)c3ccc(O)c(O)c3)[C@@H](O)[C@H](O)[C@H]1OC2=O` to `COc1cc2c(c(OC)c1OC)[C@@H]1O[C@H](COC(=O)c3ccc(O)cc3)[C@@H](O)[C@H](O)[C@H]1OC2=O`, the Ki rises from 4.5 µM to 74.8 µM (17-fold). The first binds more tightly here.
